Assay results taken from patent US6391902B1, “Substituted benzofuranoindoles and indenoindoles as novel potassium channel openers” (American Home Products Corporation, priority 1998, dated 2002).

Key:
[1] = system: Bladder Tissue; assay: Relaxation of KCl-stimulated isolated rat bladder strips (contractile activity); parameters: species or system Sprague-Dawley rats; details: Rattus norvegicus, 0.5 h
Method: Sprague-Dawley rats (150-200 g) are rendered unconscious by CO2 asphyxiation and then euthanized by cervical dislocation. The bladder is removed into warm (37° C.) physiological salt solution (PSS) of the following composition (mM): NaCl, 118.4; KCl, 4.7; CaCl2, 2.5; […]; NaHCO3, 24.9; KH2PO4, 1.2; glucose, 11.1; EDTA, 0.023; gassed with 95% O2; […]; pH 7.4. The bladder is opened and then cut into strips 1-2 mm in width and 7-10 mm in length. The strips are subsequently suspended in a 10 mL tissue bath under an initial resting tension of 1.5 g. The strips are held in place by two surgical clips one of which is attached to a fixed hook while the other is attached to an isometric force transducer. […] The carbachol is then washed out and the tissue allowed to relax to its resting level of activity. Following a further 30 min period of recovery an additional 15 mM KCl re introduced into the tissue bath. […] Following stabilization of this enhanced level of contractile activity, incremental increases in the concentration of test compound or vehicle are introduced into the tissue bath. Contractile activity is measured for each compound or vehicle concentration during the last minute of a 30 minute challenge.

[2] = system: Aorta Tissue; assay: Relaxation of KCl-contracted isolated rat thoracic aortic rings (contractile force); parameters: species or system Sprague-Dawley rats
Method: The smooth muscle (aorta) relaxing activity of the compounds of this ivention was established in accordance with standard pharmaceutically accepted test procedures with representative compounds as follows.
Male Sprague-Dawley rats (150-200 g) are rendered unconscious by CO2 asphyxiation and then euthanized by cervical dislocation. The thoracic aorta is removed into warm (37° C.) physiological sial solution (PSS) of the following composition (mM): NaCl, 118.4; KCl, 4.7; CaCl2, 2.5; MgSO4.7H2O, 1.2; NaHCO3, 24.9; KH2PO4, 1.2; glucose, 11.1; EDTA, 0.023; gassed with 95% O2/5% CO2; pH 7.4. The aorta is cleaned of fat and loose adventitia and cut into rings 3-4 mm in width. The rings are subsequently suspended between two stainless steel wire tissue holders in a 10 mL tissue bath. One wire tissue holder is attached to a fixed hook while the other is attached to an isometric force transducer. Resting tension is set at 1 g. The tissues are to recover for a period of 60 min prior to beginning the experiment. Tissues are challenged with PSS containing 25 mM KCl to elicit a contracture. The tissues are then washed repeatedly with fresh PSS over a period of 30 min and allowed to recover to baseline tension. PSS containing 30-35 mM KCl is then introduced into the tissue bath to evoke a contracture that is allowed to stabilize for not less than 45 min. (Other stimuli such as norepinephrine, PGF2a, histamine, angiotensin II, endothelin or PSS containing 80 mM KCl may also be used to evoke a contracture as necessary). Increasing concentrations of test compound or vehicle are then added to the tissue bath in a cumulative fashion.
Isometric force development by the aortic rings is measured using a force transducer and recorded on a polygraph. The percentage inhibition of contractile force evoked by each concentration of a given test compound is used to generate a concentration-response curve. […] [Log concentration versus response curves are approximately linear between 20% and 80% of the maximum response. As such, the IC50 concentration of the drug is determined by linear regression analysis (where x=log concentration and y=% inhibition) of the data points in the 20% to 80% region of the curve.] […] Data collected from 2 animals are averaged for primary screens.

[3] = system: whole rat bladder; assay: Relaxation of whole rat bladder ex-vivo (partial outlet obstruction, developed bladder pressure); parameters: species or system Spraque-Dawley rats; details: isolated whole bladder of rats 6 weeks after partial outlet obstruction, 30 minute challenge
Method: Several compound in this invention were tested for their ability to relax a whole rat bladder ex-vivo. The protocol for this assay is as follows.
Female Spraque-Dawley rats weighing between 200-300 g were anesthetized with Nembutol® (50 mg/kg, i.p.). After achieving adequate anesthesia, the bladder and urethra were exposed through a mid-line incision. A 4-0 silk ligature was tied around the proximal end of the urethra in the presence of a 1 mm diameter stainless steel rod. The rod was then removed resulting in a partial outlet obstruction. The wound was closed with surgical staples and the animals received 15,000 units of Bicillin® antibiotic. After a 6 week period the animals were asphyxiated with CO2 gas. Bladders for contractile analysis were placed in a physiological salt solution (PSS) at 37° C. of the following composition (in mM): NaCl (118.4), KCl (4.7), CaCl2 (2.5), MgSO4 (1.2), KH2PO4 (1.2), NaHCO3 (24.9) and D-glucose (11.1) gassed with […] to achieve a pH of 7.4.
The isolated bladders were secured through the urethral opening with a silk ligature to a length of polyethylene tubing (PE-200). […]
Following stabilization, incremental increases in the concentration of test compound or vehicle are introduced into the tissue bath. Contractile activity is measured for each compound or vehicle concentration during the last minute of a 30 minute challenge.

IC50 [1]: 5.2 ± 1.8 µM | IC50 ([2]; Rattus norvegicus): 17.2 ± 2.3 µM | Ratio Aorta IC50 / Bladder IC50 ([2]; aorta IC50 divided by bladder IC50, tissue selectivity): 3.3 | IC50 [3]: 5 µM | melting point: 310 °C (dec.)
SMILES: CC1(C)c2ccc([N+](=O)[O-])cc2-c2[nH]c3c(C(=O)O)cccc3c21 [Example 24, 10,10-Dimethyl-3-nitro-5,10-dihydro-indeno[1,2-b]indole-6-carboxylic acid]
